Data on 14 compounds can be found in patent US20090186874A1, “Carboxamide derivative and use thereof” (priority 2004, published 2009).

By pIC50 is commonly meant the negative decadic logarithm of the IC50, by convention in mol/L.

For this test, the target named is T1, substance P receptor (Homo sapiens, UniProt P25103).
T1 construct: The receptor was prepared from human lymphoblast cells (IM-9); endogenous in cells; host or cells: IM-9 human lymphoblast cells (membrane preparation)
The test can be described thus: Radioligand receptor binding inhibitory activity (125I-BHSP binding to receptor from IM-9 cells). The conditions noted are these: receptor from human lymphoblast cells (IM-9); radioligand 125I-BHSP; 25° C., 30 minutes. The protocol: Radioligand receptor binding inhibitory activity (Binding inhibitory activity using receptor from human lymphoblast cells (IM-9))
The residue was washed twice with 30 mL of the above-mentioned buffer, which was then preserved frozen (−80° C.) as a specimen of the receptor.
The specimen was suspended in a reaction buffer (50 mM Tri-HCl buffer (pH 7.4), 0.02% bovine serum albumin, 1 mM phenylmethylsulfonyl fluoride, 2 μg/mL chymostatin, 40 μg/mL bacitracin and 3 mM manganese chloride) to have protein in the concentration of 0.5 mg/mL of protein and 100 μl portion of the suspension was used in the reaction. […] The amount of nonspecific binding was determined by adding substance P at a final concentration of 2×10^−6 M.
After the reaction, using a cell harvester (290 PHD, Cambridge Technology, Inc, U.S.A.), filtration was carried out through a glass filter (GF/B, Whatman, U.S.A.), which was immersed in 0.1% polyethyleneimine for 24 hours and dried. After washing three times with 250 μL of 50 mM Tris-HCl buffer (pH 7.4) containing 0.02% bovine serum albumin, the radioactivity remaining on the filter was determined with a gamma counter.

The structures appear in SMILES notation. pIC50: −log10 of the molar value. Structures can show the parent of a compound that is named as a salt.

T1 sequence (P25103 whole entry): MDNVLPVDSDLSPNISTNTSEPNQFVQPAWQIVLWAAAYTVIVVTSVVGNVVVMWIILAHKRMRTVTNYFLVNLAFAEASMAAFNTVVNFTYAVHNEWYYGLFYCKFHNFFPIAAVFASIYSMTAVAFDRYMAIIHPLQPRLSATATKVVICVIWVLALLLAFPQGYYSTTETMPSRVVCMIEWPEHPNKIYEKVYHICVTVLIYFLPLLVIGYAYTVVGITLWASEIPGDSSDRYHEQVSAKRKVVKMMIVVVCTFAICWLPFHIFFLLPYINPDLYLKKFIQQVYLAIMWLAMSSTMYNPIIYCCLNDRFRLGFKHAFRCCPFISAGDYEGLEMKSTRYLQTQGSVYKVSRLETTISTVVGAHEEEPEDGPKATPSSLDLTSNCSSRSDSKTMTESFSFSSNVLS

Compound `CC(=O)N1CCC(C(=O)N2CC[C@H](C(=O)N(C)Cc3cc(C(F)(F)F)cc(C(F)(F)F)c3)[C@H](c3ccccc3)C2)CC1` (relative stereo) [Example 30, (3R*,4S*)-1-[(1-acetylpiperidin-4-yl)carbonyl]-N-[3,5-bis(trifluoromethyl)benzyl]-N-methyl-3-phenylpiperidine-4-carboxamide] gave a pIC50 of 10.31. `Cc1cc(F)ccc1[C@@H]1CN(C(=O)CC2NC(=O)NC2=O)CC[C@H]1C(=O)N(C)Cc1cc(C(F)(F)F)cc(C(F)(F)F)c1` (relative stereo) [Example 43, (3R*,4R*)-N-[3,5-bis(trifluoromethyl)benzyl]-1-[(2,5-dioxoimidazolidin-4-yl)acetyl]-3-(4-fluoro-2-methylphenyl)-N-methylpiperidine-4-carboxamide] showed a negative logarithm of the IC50 (pIC50) of 10.19. Under `Cc1cc(F)ccc1[C@@H]1CNCC[C@H]1C(=O)N(C)Cc1cc(C(F)(F)F)cc(C(F)(F)F)c1` (relative stereo) [Example 12, (3R*,4R*)-N-[3,5-bis(trifluoromethyl)benzyl]-3-(4-fluoro-2-methylphenyl)-N-methylpiperidine-4-carboxamide hydrochloride] stands 10.29; under `Cc1cc(F)ccc1[C@@H]1CN(C(N)=O)CC[C@H]1C(=O)N(C)Cc1cc(C(F)(F)F)cc(C(F)(F)F)c1` (relative stereo) [Example 75, (3R*,4R*)-N^4-[3,5-bis(trifluoromethyl)benzyl]-3-(4-fluoro-2-methylphenyl)-N^4-methylpiperidine-1,4-dicarboxamide], 10.46. For `CC(=O)N1CCC(C(=O)N2CC[C@@H](C(=O)N(C)Cc3cc(C(F)(F)F)cc(C(F)(F)F)c3)[C@H](c3ccc(F)cc3)C2)CC1` (relative stereo) [Example 45, (3R*,4R*)-1-[(1-acetylpiperidin-4-yl)carbonyl]-N-[3,5-bis(trifluoromethyl)benzyl]-3-(4-fluorophenyl)-N-methylpiperidine-4-carboxamide], the pIC50 is 10.28.

As to `CC(=O)N1CCC(C(=O)N2CC[C@@H](C(=O)N(C)Cc3cc(C(F)(F)F)cc(C(F)(F)F)c3)[C@H](c3ccccc3)C2)CC1` (relative stereo) [Example 35, (3R*,4R*)-1-[(1-acetylpiperidin-4-yl)carbonyl]-N-[3,5-bis(trifluoromethyl)benzyl]-N-methyl-3-phenylpiperidine-4-carboxamide], the pIC50 is 10.01. `Cc1cc(F)ccc1[C@@H]1CN(C(=O)C(N)=O)CC[C@H]1C(=O)N(C)Cc1cc(C(F)(F)F)cc(C(F)(F)F)c1` (relative stereo) [Example 73, (3R*,4R*)-1-[amino(oxo)acetyl]-N-[3,5-bis(trifluoromethyl)benzyl]-3-(4-fluoro-2-methylphenyl)-N-methylpiperidine-4-carboxamide]: the negative logarithm of the IC50 (pIC50) is 10.28.

As to `COCC(=O)N1CC[C@@H](C(=O)N(C)Cc2cc(C(F)(F)F)cc(C(F)(F)F)c2)[C@H](c2ccc(F)cc2C)C1` (relative stereo) [Example 40, (3R*,4R*)-N-[3,5-bis(trifluoromethyl)benzyl]-3-(4-fluoro-2-methylphenyl)-1-(methoxyacetyl)-N-methylpiperidine-4-carboxamide], the pIC50 was 10.24. Compound `CCN(CC)CCC(=O)N1CC[C@@H](C(=O)N(C)Cc2cc(C(F)(F)F)cc(C(F)(F)F)c2)[C@H](c2ccc(F)cc2C)C1` (relative stereo) [Example 41, (3R*,4R*)-N-[3,5-bis(trifluoromethyl)benzyl]-1-(N,N-diethyl-β-alanyl)-3-(4-fluoro-2-methylphenyl)-N-methylpiperidine-4-carboxamide Hydrochloride] showed a pIC50 of 10.60. The compound `Cc1cc(F)ccc1[C@@H]1CN(C(=O)Cn2cnnn2)CC[C@H]1C(=O)N(C)Cc1cc(C(F)(F)F)cc(C(F)(F)F)c1` (relative stereo) [Example 42, (3R*,4R*)-N-[3,5-bis(trifluoromethyl)benzyl]-3-(4-fluoro-2-methylphenyl)-N-methyl-1-(1H-tetrazol-1-ylacetyl)piperidine-4-carboxamide] had a negative logarithm of the IC50 (pIC50) of 10.66. In the case of `Cc1cc(F)ccc1[C@@H]1CN(Cc2n[nH]c(=O)[nH]2)CC[C@H]1C(=O)N(C)Cc1cc(C(F)(F)F)cc(C(F)(F)F)c1` (relative stereo) [Example 54, (3R*,4R*)-N-[3,5-bis(trifluoromethyl)benzyl]-3-(4-fluoro-2-methylphenyl)-N-methyl-1-[(5-oxo-4,5-dihydro-1H-1,2,4-triazol-3-yl)methyl]piperidine-4-carboxamide], the pIC50 was 10.44. With `CC(=O)N1CCC(C(=O)N2CC[C@H](C(=O)N(C)Cc3cc(C(F)(F)F)cc(C(F)(F)F)c3)[C@H](c3ccc(F)cc3)C2)CC1` (relative stereo) [Example 44, (3R*,4S*)-1-[(1-acetylpiperidin-4-yl)carbonyl]-N-[3,5-bis(trifluoromethyl)benzyl]-3-(4-fluorophenyl)-N-methylpiperidine-4-carboxamide], the negative logarithm of the IC50 (pIC50) was 10.72.

As to `CC(=O)NCC(=O)N1CC[C@@H](C(=O)N(C)Cc2cc(C(F)(F)F)cc(C(F)(F)F)c2)[C@H](c2ccc(F)cc2C)C1` (relative stereo) [Example 77, (3R*,4R*)-1-(N-acetylglycyl)-N-[3,5-bis(trifluoromethyl)benzyl]-3-(4-fluoro-2-methylphenyl)-N-methylpiperidine-4-carboxamide], the pIC50 was 10.37. Compound `CC(=O)N1CCC(C(=O)N2CC[C@@H](C(=O)N(C)Cc3cc(C(F)(F)F)cc(C(F)(F)F)c3)[C@H](c3ccc(F)cc3C)C2)CC1` (relative stereo) [Example 46, (3R*,4R*)-1-[(1-acetylpiperidin-4-yl)carbonyl]-N-[3,5-bis(trifluoromethyl)benzyl]-3-(4-fluoro-2-methylphenyl)-N-methylpiperidine-4-carboxamide] showed a negative logarithm of the IC50 (pIC50) of 10.33.
